The record followed here is PMC3066212, “Functional Divergence among Silkworm Antimicrobial Peptide Paralogs by the Activities of Recombinant Proteins and the Induced Expression Profiles” (PLoS ONE, 2011).

Assay [1] has as its system ten tested bacteria (five Gram-positive, five Gram-negative). Description: Ultrasensitive radial diffusion, antimicrobial spectrum. The format is cell-based. Particulars: 5 µmol/L, 10 µL in 2.7 mm pore on LB-medium plates, 37°C 24 h, n = 3 (Fig. 3).
Another assay has as its system R. dolaanacearum. The format is cell-based, Ralstonia dolaanacearum.
In the next assay the test system is X. pv. campestris. Description: Ultrasensitive radial diffusion. Type of assay: cell-based, Xanthomons pv. campestris. Particulars: 5 µmol/L, 10 µL, 37°C 24 h (Fig. 3).
In the next assay the test system is S. aureus. Put plainly: Ultrasensitive radial diffusion. Type of assay: cell-based, Staphylococcus aureus. The following applies: 5 µmol/L, 10 µL, 37°C 24 h (Fig. 3). As to the method:
Figure 3 The antimicrobial spectrum of paralogs among each AMP gene family. The following microbes were used to test antimicrobial activities: Gram-positive bacteria: S. aureus (Sa), B. bombysepticus (Bb), B. subtilis (Bs), B. thuringiensis (Bt), B. thuringiensis subsp. galleriae (Btsg); Gram-negative bacteria: E. coli (Ec), S. marcescens (Sm), P. aeruginosa (Pa), X. pv. campestris (Xpc), R. dolaanacearum (Rd). Each sample (5 µmol/L, 10 µL) was dropped into the 2.7 mm pore on LB-medium plates and incubated at 37°C for 24 h as shown in Figure S3 for moricin family. The measure unit is millimeter (mm). […] Differences were significant at *P<0.01 among each recombinant AMP family.
B. mori strain Dazao was from the Sericulture & Agri-Food Research Institute, Guangdong Academy of Agricultural Sciences, China. E. coli Rosetta™(DE3) strain was used to express recombinant AMPs. […]
Antimicrobial activity of purified expression products was assayed using the ultrasensitive radial diffusion method and the MICs method seeded with Gram-negative or Gram-positive bacteria. […] The size of the clear area around the bacteria was measured, as shown in Figure S3 for the moricin family. […] Absorbance at 595 nm was measured and was repeated three times, and the MICs determined when the average absorbance was equal to the control sample.

Take “MNILKLFLVFMVAMSLVSCSTAAPAKIP--IKAIKTVGKAVGKGLRAINIASTANDVFNFLKPKKRKH [Bmmor, recombinant silkworm moricin, two extra N-terminal residues (Ala-Met)]”: in assay [1], the “antimicrobial spectrum among the ten tested bacteria” value was “nine of ten tested bacteria”. Moreover, the “Minimal growth inhibition concentration (MIC), R. dolaanacearum” value with R. dolaanacearum was determined as 1.25 µM.
For the substance “MNFAKILSFVFALVLALSMTSAAPEPRWKIFKKIEKMGRNIRDGIVKAGPAIEVLGSAKAIGK [BmcecB6, recombinant silkworm cecropin paralog representing B subtype, two extra N-terminal residues (Ala-Met)]”, the “antimicrobial spectrum among the ten tested bacteria” value in assay [1] is “eight of ten tested bacteria”. Moreover, the “antimicrobial activity against X. pv. campestris” value in the assay on X. pv. campestris is “not inhibited”. For the same substance, in the assay on S. aureus, the “antimicrobial activity against S. aureus” value is reported as “not inhibited”.
On to “MNFSRALFYVFAVFLVCASVMAAPEPRWKIFKKIEKVGQNIRDGIIKAGPAVAVVGQAATIAHGK [BmcecE, recombinant silkworm cecropin paralog, E subtype, two extra N-terminal residues (Ala-Met)]”, for which, in assay [1], the “antimicrobial spectrum among the ten tested bacteria” value was “five of ten tested bacteria”.
As for “MDFLKYFIVVLVALSLMVCSGQADPKIP--VKSLKKGGKIIAKGFKVLTAAGTAHEVYSHVRNRGNQG [BmmorLA1, recombinant silkworm moricin-like A1, two extra N-terminal residues (Ala-Met)]”, in the assay with R. dolaanacearum, the “Minimal growth inhibition concentration (MIC), R. dolaanacearum” value was determined as 1.25 µM.
For the substance “MNFVRILSFVFALVLALGAVSAAPEPRWKLFKKIEKVGRNVRDGLIKAGPAIAVIGQAKSLGK [BmcecA1, recombinant silkworm cecropin paralog, A subtype, EK-digested, two extra N-terminal residues (Ala-Met)]”, in assay [1], the “antimicrobial spectrum among the ten tested bacteria” value is on record as “five of ten tested bacteria”.
On the same count and under the same terms, the value for “MNFVKILCVVLALMLALSMASAALEPKRKVFKIIEKIGRNVRGGVITAGPAVVVVGQAASVGM [BmcecC, recombinant silkworm cecropin paralog, C subtype, two extra N-terminal residues (Ala-Met)]” was “no ability to inhibit the growth”.
